In US10556879B2, “Retinoid compound, preparation method therefor, intermediates thereof and application thereof” (SHANGHAI INSTITUTE OF ORGANIC CHEMISTRY, CHINESE ACADEMY OF …, priority 2016, dated 2020):
Where “and” joins values, the source holds several entries; their conditions need not be identical. Equal entries are not always repeated. Entries after “also recorded” stand apart in the source; their conditions may differ. Where two headings read alike, the source gives them in different places.

How the values were obtained:
[1] = system: tumor-repopulating cells of MDA-MB-231 breast cancer; assay: Inhibition of proliferation of tumor-repopulating cells, colony tumor volume in 3D fibrin gel; assay type: cell-based, human; conditions: MDA-MB-231 TRCs
Method: (§1) Therefore, we further studied the inhibitory activity of this compound against tumor-repopulating cells of six other kinds of human tumor, including A549 lung cancer cell, MCF-7 breast cancer cell, MDA-MB-435S melanoma cell, A2780 ovarian cancer cell, Hs-746T gastric cancer cell, MDA-MB-231 breast cancer cell.
(§2) The above cancer cells were incubated with 3D fibrin gel medium (90-Pa) for 5 days, and the desired tumor-repopulating cells were screened. Subsequently, the culture medium was respectively treated with collagenase and neutral protease II, and the tumor-repopulating cells of B16-F1 melanoma were released, then the obtained repopulating cells were transferred to a freshly prepared medium to be resuspended and maintained at single-cell state. The tumor-repopulating cells of individual tumor were inoculated in 3D fibrin gel medium (90-Pa) for 5 days, with 0.1% DMSO as the negative control group (represented by DMSO group in FIGS. 3-8), the drug-free group as vehicle control group (represented by None group in FIGS. 3-8), and the study was performed by beginning administrating on the day 0 and the 3rd day respectively, and the colony tumor volume was measured and calculated.
as §2, with “The above human tumor cells were” for “The above cancer cells were”, “cells of B16-F1 melanoma were inoculated” for “cells of individual tumor were inoculated”, “group in FIG. 9), the drug-free” for “group in FIGS. 3-8), the drug-free”, “measured and calculated, beginning administrating from the 3rd day at a concentration of 0.1 μM, 1.0 μM, and 10 μM respectively, the colony tumor volume was measured and calculated.” for “measured and calculated.”

[2] = system: tumor-repopulating cells of A2780 ovarian cancer; assay: as above; assay type: cell-based, human; conditions: A2780 TRCs
Method: as §1, §2
as §2, with “The above human tumor cells were” for “The above cancer cells were”, “cells of B16-F1 melanoma were inoculated” for “cells of individual tumor were inoculated”, “group in FIG. 9), the drug-free” for “group in FIGS. 3-8), the drug-free”, “measured and calculated, beginning administrating from the 3rd day at a concentration of 0.1 μM, 1.0 μM, and 10 μM respectively, the colony tumor volume was measured and calculated.” for “measured and calculated.”

[3] = system: B16-F1 metastatic melanoma in the lung; assay: B16-F1 metastatic melanoma in the lung model, 30,000 tumor-repopulating cells via tail vein (WYC-209); assay type: in vivo, mice (C57BL/6); conditions: for mice that suffered pulmonary metastatic melanoma: 30th day, 8 mice
Method: This experiment was performed to study whether WYC-209 could inhibit the metastasis of melanoma to the lung thus prevent secondary tumorigenesis. The B16-F1 cells were incubated with 3D fibrin gel medium (90-Pa) for 5 days, and the desired tumor-repopulating cells were screened. Subsequently, the culture medium was respectively treated with collagenase and neutral protease II, and the tumor-repopulating cells were released, then the obtained repopulating cells were transferred to a freshly prepared medium to be re-suspended and maintained at single-cell state. Then 24 immunocompetent mice (C57BL/6, female, 6-8 weeks) were randomly selected and divided into three groups which were respectively low-dose group (1.0 μM), high-dose group (10 μM) and DMSO negative control group, with 8 mice per group. Subsequently, the mice were injected via the tail vein with 30,000 tumor-repopulating cells of melanoma to establish a B16-F1 metastatic melanoma model in the mouse. Subsequently, Mice were administered via tail vein injection based on the body weight and the blood volume of the mice. From the 5th day on, mice in the treatment group were administrated with WYC-209 once every 2 days at a blood concentration of 1.0 μM and 10 μM; mice in the DMSO group was administered with 0.1% DMSO in a same route of administration as negative control. At this time, there was no significant difference in the body weight between the groups, the mice were fed normally, observing the survival of the mice.

[4] = system: 3T3 mouse embryonic fibroblast cells; assay: In vitro toxicity on normal cells (proliferation, apoptosis); assay type: cell-based; conditions: 10 μM
Method: (§3) The 3T3 mouse embryonic fibroblast cells and B16-F1 melanoma cells were used as the model to study in vitro toxicity of WYC-209 and WYC-331 respectively. The effect of compound WYC-209 and WYC-331 on the proliferation of 3T3 mouse embryonic fibroblast cells and B16-F1 melanoma cells were studied at a concentration of 10 μM.

[5] = system: tumor-repopulating cells of B16-F1 melanoma; assay: Inhibitory activity on proliferation of tumor-repopulating cells (TRCs) of B16-F1 melanoma in 3D fibrin gel; assay type: cell-based; conditions: for IC50: colony tumor volume, read-out: IC50 of inhibition on TRCs of B16-F1 melanoma/μM
[6] = system: B16-F1 melanoma cells; assay: In vitro effect on B16-F1 melanoma cells (proliferation, apoptosis) in the toxicity study; assay type: cell-based; conditions: 10 μM
Method: as §3

[7] = system: tumor-repopulating cells of Hs-746T gastric cancer; assay: Inhibition of proliferation of tumor-repopulating cells, colony tumor volume in 3D fibrin gel; assay type: cell-based, human; conditions: Hs-746T TRCs
Method: as §1, §2

[8] = system: tumor-repopulating cells of MCF-7 breast cancer; assay: as above; assay type: cell-based, human; conditions: MCF-7 TRCs
Method: as §1, §2

[9] = system: tumor-repopulating cells of A549 lung cancer; assay: as above; assay type: cell-based, human; conditions: A549 TRCs
Method: as §1, §2

[10] = system: tumor-repopulating cells of MDA-MB-435S melanoma; assay: as above; assay type: cell-based, human; conditions: MDA-MB-435S TRCs
Method: as §1, §2

## CCOC(=O)c1cnc(C#Cc2ccc3c(c2)C(C)(C)CC[S+]3[O-])nc1 (stereo not shown) [WYC-209, ethyl 2-((4,4-dimethyl-1-oxothiochroman-6-yl)ethynyl)pyrimidin-5-carboxylate]
[1]; 1.0 μM
  volume of tumor colony relative to None group: 25-30%
[1]; 10 μM
  volume of colony tumor relative to None group: less than 10%
[2]; 1.0 μM
  volume of tumor colony relative to None group: 25-30%
[2]; 10 μM
  volume of colony tumor relative to None group: less than 10%
[3]; 1.0 μM treatment group
  abnormalities in the liver and stomach: no abnormalities found in the liver and stomach
  mice that suffered pulmonary metastatic melanoma: 50%
[3]; 10 μM treatment group
  abnormalities in the liver and stomach: no abnormalities found in the liver and stomach
  mice that suffered pulmonary metastatic melanoma: 12.5%
[3]; blood concentration 1.0 μM
  efficiency of preventing metastasis of repopulating cells of melanoma to the lung: 50%
[3]; blood concentration 10 μM
  efficiency of preventing metastasis of repopulating cells of melanoma to the lung: 87.5% and 87%
[3]; whole experiment
  toxic side effects: no obvious toxic side effects
[4]
  effect on proliferation of 3T3 mouse embryonic fibroblast cells: did not affect the proliferation; also recorded: no effect on the growth of 3T3 cell clones
  induction of apoptosis of 3T3 mouse embryonic fibroblast cells: did not induce apoptosis; also recorded: could not induce apoptosis
[5]; Mus musculus, B16-F1, 120 h, 10 μM, incubated 5 days, colony tumor size, read-out: Inhibition rate on TRCs of B16-F1 melanoma at a concentration of 10 μM (%)
  inhibition at 10 µM: 98.8%
[5]; Mus musculus, B16-F1, dose-response curve
  IC50: 0.25 µM
[5]; Mus musculus, B16-F1, 10 μM (Table 3), read-out: Inhibition rate on TRCs of B16-F1 melanoma at a concentration of 10 μM/%
  inhibition at 10 µM: 98.8%
[5]; dose-response curve
  IC50: 0.19 µM
[6]
  effect on proliferation of B16-F1 melanoma cells: significantly block the growth
  induction of apoptosis of B16-F1 melanoma cells: significant cell apoptosis
[7]
  growth trend of colony tumor: reverse the growth trend of colony tumor
[7]; 1.0 μM
  volume of tumor colony relative to None group: 25-30%
[7]; 10 μM
  volume of colony tumor relative to None group: less than 10%
[8]; 1.0 μM
  volume of tumor colony relative to None group: 25-30%
[8]; 10 μM
  volume of colony tumor relative to None group: less than 10%
[9]; 1.0 μM
  volume of tumor colony relative to None group: 25-30%
[9]; 10 μM
  volume of colony tumor relative to None group: less than 10%
[10]; 1.0 μM
  volume of tumor colony relative to None group: 25-30%
[10]; 10 μM
  volume of colony tumor relative to None group: less than 10%
